Assay results taken from the kinase profiling compilation of Christmann-Franck et al. (2016).

Columns and labels:
Settings in all cases: compound 10.0 µM
[1] = molecular target: CDK4 CCND1 (human) (UniProt P11802+P24385)
[2] = molecular target: MST4 (human) (UniProt Q9P289)
[3] = molecular target: LATS2 (human) (UniProt Q9NRM7)
[4] = molecular target: FGFR3 (human) (UniProt P22607)
[5] = molecular target: STK33 (human) (UniProt Q9BYT3)
[6] = molecular target: WEE2 (human) (UniProt P0C1S8)
[7] = molecular target: PAK3 (human) (UniProt O75914)
[8] = molecular target: TEK (human) (UniProt Q02763)
[9] = molecular target: TTK (human) (UniProt P33981)
[10] = molecular target: EPHB6 (human) (UniProt O15197)
[11] = molecular target: NTRK1 (human) (UniProt P04629)
[12] = molecular target: MARK4 (human) (UniProt Q96L34)
[13] = molecular target: SNRK (human) (UniProt Q9NRH2)
[14] = molecular target: STK39 (human) (UniProt Q9UEW8)
[15] = molecular target: DYRK1B (human) (UniProt Q9Y463)
[16] = molecular target: MAP3K3 (human) (UniProt Q99759)
[17] = molecular target: NUAK2 (human) (UniProt Q9H093)
[18] = molecular target: CLK1 (human) (UniProt P49759)
[19] = molecular target: MAP3K15 (human) (UniProt Q6ZN16)
Chain of MAP3K15 (human) (Q6ZN16 whole entry, looked up): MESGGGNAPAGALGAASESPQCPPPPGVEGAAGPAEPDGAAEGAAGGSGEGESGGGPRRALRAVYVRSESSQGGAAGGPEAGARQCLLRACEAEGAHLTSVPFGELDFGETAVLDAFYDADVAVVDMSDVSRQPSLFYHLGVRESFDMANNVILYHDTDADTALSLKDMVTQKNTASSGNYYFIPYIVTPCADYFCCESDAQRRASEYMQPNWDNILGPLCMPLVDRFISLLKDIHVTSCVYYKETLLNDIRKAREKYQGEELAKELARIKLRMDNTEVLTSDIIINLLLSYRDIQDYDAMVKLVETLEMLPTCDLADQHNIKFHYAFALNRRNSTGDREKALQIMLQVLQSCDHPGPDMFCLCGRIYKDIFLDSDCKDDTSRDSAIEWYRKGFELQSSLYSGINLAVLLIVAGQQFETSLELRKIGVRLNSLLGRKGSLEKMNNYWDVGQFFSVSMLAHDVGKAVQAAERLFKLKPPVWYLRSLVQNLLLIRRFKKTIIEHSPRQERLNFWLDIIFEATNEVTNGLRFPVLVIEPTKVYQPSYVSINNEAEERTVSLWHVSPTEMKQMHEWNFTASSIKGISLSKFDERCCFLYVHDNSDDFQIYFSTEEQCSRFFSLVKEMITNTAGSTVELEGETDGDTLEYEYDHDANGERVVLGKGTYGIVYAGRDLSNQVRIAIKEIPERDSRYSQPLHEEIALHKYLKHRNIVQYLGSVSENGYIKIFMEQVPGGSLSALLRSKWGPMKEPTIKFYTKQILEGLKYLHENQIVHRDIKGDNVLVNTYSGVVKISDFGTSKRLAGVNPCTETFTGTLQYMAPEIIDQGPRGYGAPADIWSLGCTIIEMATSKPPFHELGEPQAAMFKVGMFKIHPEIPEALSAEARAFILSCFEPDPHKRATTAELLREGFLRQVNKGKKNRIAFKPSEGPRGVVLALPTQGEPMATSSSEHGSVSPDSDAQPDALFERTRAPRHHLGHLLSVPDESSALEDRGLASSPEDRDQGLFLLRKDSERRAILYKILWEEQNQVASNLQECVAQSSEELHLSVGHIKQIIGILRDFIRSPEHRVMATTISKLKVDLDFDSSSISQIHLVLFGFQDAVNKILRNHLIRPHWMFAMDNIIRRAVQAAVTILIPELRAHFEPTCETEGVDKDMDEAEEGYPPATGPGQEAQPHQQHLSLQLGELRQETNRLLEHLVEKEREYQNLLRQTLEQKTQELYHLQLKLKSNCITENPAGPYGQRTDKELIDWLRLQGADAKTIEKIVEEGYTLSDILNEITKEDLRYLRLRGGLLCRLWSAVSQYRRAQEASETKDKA

[20] = molecular target: ICK (human) (UniProt Q9UPZ9)
[21] = molecular target: DYRK1A (human) (UniProt Q13627)
[22] = molecular target: TESK1 (human) (UniProt Q15569)
[23] = molecular target: CDKL3 (human) (UniProt Q8IVW4)
[24] = molecular target: FGR (human) (UniProt P09769)
Chain of FGR (human) (P09769 whole entry, looked up): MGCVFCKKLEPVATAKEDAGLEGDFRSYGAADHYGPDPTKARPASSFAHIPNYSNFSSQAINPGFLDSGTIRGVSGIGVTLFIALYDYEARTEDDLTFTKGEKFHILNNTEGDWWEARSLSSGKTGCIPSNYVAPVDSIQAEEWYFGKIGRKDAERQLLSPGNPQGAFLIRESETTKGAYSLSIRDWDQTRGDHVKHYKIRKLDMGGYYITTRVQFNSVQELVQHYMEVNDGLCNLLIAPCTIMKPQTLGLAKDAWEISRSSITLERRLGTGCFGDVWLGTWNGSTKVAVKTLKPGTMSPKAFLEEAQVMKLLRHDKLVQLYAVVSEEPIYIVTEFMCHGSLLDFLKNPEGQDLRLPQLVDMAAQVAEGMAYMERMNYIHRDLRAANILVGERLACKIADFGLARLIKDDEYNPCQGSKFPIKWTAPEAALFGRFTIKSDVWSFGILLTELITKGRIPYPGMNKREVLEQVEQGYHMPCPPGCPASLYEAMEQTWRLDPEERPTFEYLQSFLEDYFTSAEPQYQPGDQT

[25] = molecular target: CSNK1G1 (human) (UniProt Q9HCP0)
[26] = molecular target: CAMKK1 (human) (UniProt Q8N5S9)
[27] = molecular target: RPS6KA6 KD2 (human) (UniProt Q9UK32)
[28] = molecular target: PLK1 (human) (UniProt P53350)
[29] = molecular target: SIK3 (human) (UniProt Q9Y2K2)
[30] = molecular target: NEK7 (human) (UniProt Q8TDX7)
Chain of NEK7 (human) (Q8TDX7 whole entry, looked up): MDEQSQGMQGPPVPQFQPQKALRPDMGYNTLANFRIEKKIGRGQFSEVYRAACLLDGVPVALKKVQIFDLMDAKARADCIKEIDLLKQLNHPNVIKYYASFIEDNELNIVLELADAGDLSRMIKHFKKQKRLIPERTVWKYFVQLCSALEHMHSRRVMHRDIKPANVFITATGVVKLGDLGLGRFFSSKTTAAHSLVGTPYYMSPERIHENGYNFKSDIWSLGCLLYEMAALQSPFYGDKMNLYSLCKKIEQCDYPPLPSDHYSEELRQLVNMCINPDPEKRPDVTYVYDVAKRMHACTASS

[31] = molecular target: DMPK (human) (UniProt Q09013)
[32] = molecular target: PI4KB (human) (UniProt Q9UBF8)
[33] = molecular target: EPHA4 (human) (UniProt P54764)
[34] = molecular target: ACVR2B (human) (UniProt Q13705)
[35] = molecular target: CLK4 (human) (UniProt Q9HAZ1)
Chain of CLK4 (human) (Q9HAZ1 whole entry, looked up): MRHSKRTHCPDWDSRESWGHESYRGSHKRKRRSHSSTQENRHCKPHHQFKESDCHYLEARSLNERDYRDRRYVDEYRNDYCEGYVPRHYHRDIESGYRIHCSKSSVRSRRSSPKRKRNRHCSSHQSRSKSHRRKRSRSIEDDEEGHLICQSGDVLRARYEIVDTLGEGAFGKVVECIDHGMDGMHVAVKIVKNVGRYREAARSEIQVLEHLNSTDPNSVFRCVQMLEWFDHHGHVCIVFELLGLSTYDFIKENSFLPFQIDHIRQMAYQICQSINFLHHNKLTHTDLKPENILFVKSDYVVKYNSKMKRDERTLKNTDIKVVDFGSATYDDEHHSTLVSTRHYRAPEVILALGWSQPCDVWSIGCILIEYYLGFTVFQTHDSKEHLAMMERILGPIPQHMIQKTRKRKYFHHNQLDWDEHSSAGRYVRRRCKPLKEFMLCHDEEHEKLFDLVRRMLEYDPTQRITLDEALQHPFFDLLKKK

[36] = molecular target: EPHB3 (human) (UniProt P54753)
[37] = molecular target: MAP2K1 (human) (UniProt Q02750)
Chain of MAP2K1 (human) (Q02750 whole entry, looked up): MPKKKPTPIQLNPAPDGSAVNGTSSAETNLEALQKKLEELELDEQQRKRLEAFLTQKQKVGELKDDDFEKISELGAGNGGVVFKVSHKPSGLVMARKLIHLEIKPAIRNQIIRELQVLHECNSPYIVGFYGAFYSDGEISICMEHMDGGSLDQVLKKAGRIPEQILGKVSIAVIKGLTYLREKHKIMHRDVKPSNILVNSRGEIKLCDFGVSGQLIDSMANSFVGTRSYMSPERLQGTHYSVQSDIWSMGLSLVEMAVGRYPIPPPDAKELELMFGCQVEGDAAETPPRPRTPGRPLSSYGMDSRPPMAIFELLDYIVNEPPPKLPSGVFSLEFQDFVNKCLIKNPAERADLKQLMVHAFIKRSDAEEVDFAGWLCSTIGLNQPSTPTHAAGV

[38] = molecular target: CDK11B (human) (UniProt P21127)
[39] = molecular target: RIPK4 (human) (UniProt P57078)
Chain of RIPK4 (human) (P57078 whole entry, looked up): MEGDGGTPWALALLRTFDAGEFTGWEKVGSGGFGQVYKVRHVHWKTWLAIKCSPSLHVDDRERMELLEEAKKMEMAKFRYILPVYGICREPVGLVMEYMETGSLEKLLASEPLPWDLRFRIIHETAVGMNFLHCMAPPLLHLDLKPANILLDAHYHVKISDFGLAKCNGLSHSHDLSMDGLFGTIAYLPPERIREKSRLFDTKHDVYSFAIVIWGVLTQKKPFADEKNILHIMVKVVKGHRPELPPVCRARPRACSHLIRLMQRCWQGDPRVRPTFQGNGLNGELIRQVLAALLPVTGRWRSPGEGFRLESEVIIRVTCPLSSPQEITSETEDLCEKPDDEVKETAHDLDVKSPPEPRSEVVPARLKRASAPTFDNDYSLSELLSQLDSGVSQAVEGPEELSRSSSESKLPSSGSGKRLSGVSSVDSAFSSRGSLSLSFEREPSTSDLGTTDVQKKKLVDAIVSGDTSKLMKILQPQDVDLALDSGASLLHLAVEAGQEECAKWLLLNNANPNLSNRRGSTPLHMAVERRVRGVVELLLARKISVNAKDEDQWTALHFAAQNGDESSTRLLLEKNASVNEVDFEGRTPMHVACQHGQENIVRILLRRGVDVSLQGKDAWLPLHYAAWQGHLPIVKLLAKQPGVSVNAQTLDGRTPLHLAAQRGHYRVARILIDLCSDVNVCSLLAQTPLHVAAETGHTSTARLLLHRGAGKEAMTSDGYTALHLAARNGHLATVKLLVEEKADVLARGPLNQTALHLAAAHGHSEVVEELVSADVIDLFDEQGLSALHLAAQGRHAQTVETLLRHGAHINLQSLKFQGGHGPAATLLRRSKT

[40] = molecular target: STK17A (human) (UniProt Q9UEE5)
[41] = molecular target: ROS1 (human) (UniProt P08922)
[42] = molecular target: PAK6 (human) (UniProt Q9NQU5)
Chain of PAK6 (human) (Q9NQU5 whole entry, looked up): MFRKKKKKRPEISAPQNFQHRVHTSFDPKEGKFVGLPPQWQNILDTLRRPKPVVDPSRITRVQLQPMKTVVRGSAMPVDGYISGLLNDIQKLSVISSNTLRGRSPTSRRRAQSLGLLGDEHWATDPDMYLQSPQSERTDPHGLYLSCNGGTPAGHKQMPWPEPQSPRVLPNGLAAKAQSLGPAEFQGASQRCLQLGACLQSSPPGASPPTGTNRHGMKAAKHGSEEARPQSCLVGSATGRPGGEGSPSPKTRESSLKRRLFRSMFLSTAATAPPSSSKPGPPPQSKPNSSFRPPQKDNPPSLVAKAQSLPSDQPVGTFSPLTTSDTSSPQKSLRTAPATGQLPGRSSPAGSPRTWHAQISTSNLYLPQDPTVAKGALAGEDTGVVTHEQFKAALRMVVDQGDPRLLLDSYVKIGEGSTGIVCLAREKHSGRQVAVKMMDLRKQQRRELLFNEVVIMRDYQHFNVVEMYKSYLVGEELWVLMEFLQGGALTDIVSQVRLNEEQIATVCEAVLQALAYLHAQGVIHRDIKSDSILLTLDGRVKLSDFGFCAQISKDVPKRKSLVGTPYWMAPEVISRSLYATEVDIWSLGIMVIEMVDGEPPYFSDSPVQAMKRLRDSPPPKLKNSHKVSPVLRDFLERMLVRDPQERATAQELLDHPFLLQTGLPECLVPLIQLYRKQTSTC

Chain of STK33 (human) (Q9BYT3 whole entry, looked up): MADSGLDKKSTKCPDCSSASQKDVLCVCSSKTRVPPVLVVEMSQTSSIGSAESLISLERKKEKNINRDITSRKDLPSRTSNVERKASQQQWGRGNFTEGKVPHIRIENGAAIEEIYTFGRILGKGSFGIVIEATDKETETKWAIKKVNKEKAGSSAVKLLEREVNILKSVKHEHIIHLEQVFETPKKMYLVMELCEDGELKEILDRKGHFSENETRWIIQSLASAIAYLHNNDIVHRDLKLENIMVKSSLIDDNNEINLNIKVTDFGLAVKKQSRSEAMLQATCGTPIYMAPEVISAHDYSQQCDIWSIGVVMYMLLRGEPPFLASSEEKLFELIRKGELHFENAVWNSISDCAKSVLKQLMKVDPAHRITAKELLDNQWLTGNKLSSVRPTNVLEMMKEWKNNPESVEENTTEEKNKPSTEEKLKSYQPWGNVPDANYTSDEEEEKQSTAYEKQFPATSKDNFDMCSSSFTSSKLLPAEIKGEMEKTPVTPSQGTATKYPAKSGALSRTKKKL

For `CNC(=O)c1cc(Oc2ccc(NC(=O)Nc3ccc(Cl)c(C(F)(F)F)c3)cc2)ccn1`, the per cent of control [1] was 66%, the per cent of control [2] was 99% and the per cent of control [3] was 100%. The per cent of control [4] was 20%, the per cent of control [5] was 6% and the per cent of control [6] was 100%. For the same compound, the per cent of control [7] was 56%, the per cent of control [8] was 2.8% and the per cent of control [9] was 15%. It also gave a per cent of control [10] of 2.4%, a per cent of control [11] of 22% and a per cent of control [12] of 93%. For the same compound, the per cent of control [13] was 100%, the per cent of control [14] was 76% and the per cent of control [15] was 67%. For the same compound, the per cent of control [16] was 97%, the per cent of control [17] was 100% and the per cent of control [18] was 29%. The per cent of control [19] was 79%, the per cent of control [20] was 100% and the per cent of control [21] was 100%. For the same compound, the per cent of control [22] was 72%, the per cent of control [23] was 0.35% and the per cent of control [24] was 41%. The per cent of control [25] was 100%, the per cent of control [26] was 100% and the per cent of control [27] was 16%. It also gave a per cent of control [28] of 100%, a per cent of control [29] of 100% and a per cent of control [30] of 100%. For the same compound, the per cent of control [31] was 90%, the per cent of control [32] was 100% and the per cent of control [33] was 15%. It also gave a per cent of control [34] of 68%, a per cent of control [35] of 30% and a per cent of control [36] of 53%. For the same compound, the per cent of control [37] was 95%, the per cent of control [38] was 93% and the per cent of control [39] was 100%. It also gave a per cent of control [40] of 58%, a per cent of control [41] of 79% and a per cent of control [42] of 86%.
Compound `CNC(=O)c1cc(Oc2ccc(NC(=O)Nc3ccc(Cl)c(C(F)(F)F)c3)cc2)cc[n+]1[O-]` has a per cent of control [1] of 74%, a per cent of control [2] of 49% and a per cent of control [3] of 100%. It also gave a per cent of control [4] of 32%, a per cent of control [5] of 6.9% and a per cent of control [6] of 94%. The per cent of control [7] was 43%, the per cent of control [8] was 3.5% and the per cent of control [9] was 9%. It also gave a per cent of control [10] of 1.8%, a per cent of control [11] of 4% and a per cent of control [12] of 100%. The per cent of control [13] was 95%, the per cent of control [14] was 87% and the per cent of control [15] was 69%. The per cent of control [16] was 96%, the per cent of control [17] was 85% and the per cent of control [18] was 46%. For the same compound, the per cent of control [19] was 80%, the per cent of control [20] was 100% and the per cent of control [21] was 95%. For the same compound, the per cent of control [22] was 55%, the per cent of control [23] was 0.3% and the per cent of control [24] was 28%. The per cent of control [25] was 96%, the per cent of control [26] was 79% and the per cent of control [27] was 6.4%. For the same compound, the per cent of control [28] was 100%, the per cent of control [29] was 100% and the per cent of control [30] was 100%. It also gave a per cent of control [31] of 91%, a per cent of control [32] of 100% and a per cent of control [33] of 13%. For the same compound, the per cent of control [34] was 22%, the per cent of control [35] was 47% and the per cent of control [36] was 100%. For the same compound, the per cent of control [37] was 80%, the per cent of control [38] was 100% and the per cent of control [39] was 100%. It also gave a per cent of control [40] of 66%, a per cent of control [41] of 73% and a per cent of control [42] of 82%.
